# Source: patent US12496301B2, “Use of androgen receptor degrader for the treatment of spinal and bulbar muscular atrophy” (Arvinas Operations, Inc., priority 2023, dated 2025)
# How the values were obtained:
# endogenous mouse AR = target: T1, endogenous mouse AR (Mus musculus, UniProt P19091); test: Endogenous mouse AR degradation in muscle of hAR100Q mice, capillary immunoassay; format: in vivo
# T1 construct: from tissue; host or cells: mouse LABC muscle (C57Bl/6 and hAR100Q mice); quadriceps (hAR100Q mice)
# T1 sequence (P19091 1-899): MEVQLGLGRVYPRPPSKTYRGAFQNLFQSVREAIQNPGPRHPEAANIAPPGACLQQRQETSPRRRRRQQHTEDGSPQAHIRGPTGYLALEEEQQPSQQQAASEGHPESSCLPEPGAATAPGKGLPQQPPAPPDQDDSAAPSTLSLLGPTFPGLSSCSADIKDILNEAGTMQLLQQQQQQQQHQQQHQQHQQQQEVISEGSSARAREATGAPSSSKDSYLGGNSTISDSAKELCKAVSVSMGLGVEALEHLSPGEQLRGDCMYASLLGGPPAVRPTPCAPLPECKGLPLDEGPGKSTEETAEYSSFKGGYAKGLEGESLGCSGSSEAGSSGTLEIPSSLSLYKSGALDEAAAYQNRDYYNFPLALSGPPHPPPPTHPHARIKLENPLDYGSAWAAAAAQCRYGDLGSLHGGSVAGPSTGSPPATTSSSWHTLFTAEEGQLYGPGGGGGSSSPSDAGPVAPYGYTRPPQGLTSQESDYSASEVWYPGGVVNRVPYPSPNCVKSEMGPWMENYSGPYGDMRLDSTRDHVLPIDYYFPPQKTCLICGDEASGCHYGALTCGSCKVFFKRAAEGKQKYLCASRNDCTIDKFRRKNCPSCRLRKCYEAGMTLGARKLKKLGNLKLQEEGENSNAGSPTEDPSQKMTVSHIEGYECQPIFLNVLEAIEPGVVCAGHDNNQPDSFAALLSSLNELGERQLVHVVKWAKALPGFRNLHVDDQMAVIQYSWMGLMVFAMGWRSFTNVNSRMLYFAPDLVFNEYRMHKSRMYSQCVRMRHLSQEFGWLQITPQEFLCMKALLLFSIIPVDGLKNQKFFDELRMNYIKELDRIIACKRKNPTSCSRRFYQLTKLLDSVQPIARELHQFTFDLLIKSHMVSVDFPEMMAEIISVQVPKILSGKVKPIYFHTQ
# Method: Mouse endogenous AR, human AR100Q, and high molecular weight hAR100Q from hAR100Q mice were quantified by capillary immunoassay. Tissue lysates were prepared as described above using antibodies to AR and resolved by capillary electrophoresis (ProteinSimple). High molecular weight AR was quantified as the area under the curve (AUC) from 300 to 600 kDa.
# A parallel cohort of hAR100Q mice was maintained in order to evaluate AR degradation at the 11-week timepoint. hAR100Q mice in this tissue cohort were fed chow identical to the mice that underwent muscle strength and endurance tests and were euthanized at 11-weeks of age.
# AR = target: T2, AR (Homo sapiens, UniProt P10275); test: AR agonism assay in MDA-MB-453 ARE-luc reporter cells in the presence of pomalidomide; format: cell-based; conditions: MDA-MB-453 AR luciferase reporter, with pomalidomide
# T2 sequence (P10275 1-920 Q868H): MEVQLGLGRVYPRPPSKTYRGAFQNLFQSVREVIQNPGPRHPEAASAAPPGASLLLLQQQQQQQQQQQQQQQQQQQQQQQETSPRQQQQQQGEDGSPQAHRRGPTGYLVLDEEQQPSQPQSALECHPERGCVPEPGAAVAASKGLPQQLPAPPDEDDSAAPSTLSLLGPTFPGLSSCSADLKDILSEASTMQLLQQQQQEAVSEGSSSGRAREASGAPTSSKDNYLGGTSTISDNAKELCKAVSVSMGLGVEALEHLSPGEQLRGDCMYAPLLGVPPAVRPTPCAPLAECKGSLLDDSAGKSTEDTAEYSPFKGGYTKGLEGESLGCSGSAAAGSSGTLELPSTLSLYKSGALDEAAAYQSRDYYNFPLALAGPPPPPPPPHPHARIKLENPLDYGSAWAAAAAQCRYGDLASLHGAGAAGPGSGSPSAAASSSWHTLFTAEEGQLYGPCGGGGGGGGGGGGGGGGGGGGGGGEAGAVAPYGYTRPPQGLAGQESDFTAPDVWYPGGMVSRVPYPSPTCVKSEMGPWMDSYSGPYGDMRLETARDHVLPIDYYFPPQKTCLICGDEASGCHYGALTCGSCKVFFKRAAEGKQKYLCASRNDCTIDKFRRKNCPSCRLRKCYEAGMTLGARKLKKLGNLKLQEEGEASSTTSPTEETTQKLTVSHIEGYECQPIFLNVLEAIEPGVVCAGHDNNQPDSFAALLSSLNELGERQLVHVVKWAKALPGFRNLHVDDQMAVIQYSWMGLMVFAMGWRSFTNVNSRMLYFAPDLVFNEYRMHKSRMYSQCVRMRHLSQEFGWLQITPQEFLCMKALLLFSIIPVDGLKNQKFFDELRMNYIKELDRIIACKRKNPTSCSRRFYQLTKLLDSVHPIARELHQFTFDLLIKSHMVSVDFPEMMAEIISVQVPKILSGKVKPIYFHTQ
# Method: The AR Responsive Luciferase Reporter MDA-MB-453 Stable Cell Line (MDA-MB-453 ARE-luc) was utilized for the AR agonism assay. These cells constitutively express the firefly luciferase reporter gene under the control of the androgen receptor response element. MDA-MB-453 ARE-luc cells were cultured in RPMI media (Thermo Fisher Scientific) supplemented with 5% charcoal-Dextran treated fetal bovine serum and were maintained at 37° C. in a 5% CO2 incubator. On day 0, the cells were seeded in 96-well plates at a density of 5×10^6 cells per plate. To prevent serum androgen interference during the AR agonism assay, the cells were cultured in phenol-free RPMI media without FBS. On day 1, the cells were treated with the compounds to establish concentration-response curves (CRCs). The compounds were administered at a top concentration of 300 nM with half-log dilutions. The synthetic AR agonist R1881 served as a positive control, with a top concentration of 30 nM and half-log dilutions. E3 ligase inhibitor pomalidomide was included in each well alongside the compounds at a concentration tenfold higher than that of the treated compounds. On day 2, the culture medium was removed, and luminescence data were obtained using the Bright Glo Assay (Promega, Catalog No. E2620) with 50 μL of Bright Glo buffer per well. Luminescence signals were recorded using a plate reader, and the agonism effect was calculated as a percentage using the formula: Agonism effect (%)=(Luminescence signal of compound/Maximum signal of R1881 at 30 nM)*100.
smiles,measurement,setting,value
"CC(C)N(CC1CCN(c2ncc(C(=O)N[C@H]3C(C)(C)[C@H](Oc4ccc(C#N)c(Cl)c4)C3(C)C)cn2)CC1)[C@H]1C[C@H](Oc2ccc3c(c2)C(=O)N(C2CCC(=O)NC2=O)C3=O)C1 (stereo partly shown) [Compound A, N-((1r,3r)-3-(3-chloro-4-cyanophenoxy)-2,2,4,4-tetramethylcyclobutyl)-2-(4-((((1r,3r)-3-((2-(2,6-dioxopiperidin-3-yl)-1,3-dioxoisoindolin-5-yl)oxy)cyclobutyl)(isopropyl)amino)methyl)piperidin-1-yl)pyrimidine-5-carboxamide]",reduction of endogenous mouse (WT) AR in LABC vs vehicle,"endogenous mouse AR; LABC, 11 weeks of age, chow approx. 15 mg/kg",77%
same,reduction of WT AR in quadriceps vs vehicle,endogenous mouse AR; quadriceps,65%
same,agonism activity at Emax relative to R1881,AR,< 40%
same,EC50,"AR; read-out: EC50, AR agonist activity",69 nM
